Test system: plasma glucose
Assay: Effect of co-administration with pioglitazone on plasma glucose in db/db mice
Type: in vivo
Settings: male db/db mice, 21 days in powder chow (0.03% succinate salt of Compound I and/or 0.0075% pioglitazone hydrochloride), feeding condition, average (n=7) ± standard deviation; control 472.9 ± 74.6
Source text: Male db/db (BKS.Cg-+Lepr^db/+Lepr^db) mice (6 weeks of age, CLEA Japan (Tokyo, Japan)) were divided into 4 groups (n=7 in each group) comprising Group A to Group D. Group A had free access to CE-2 powder chow (CLEA Japan) for 21 days. […] During 21 days of administration of the powder chow, there were not significant differences in the administration amount of the powder chow in the above 4 groups. After 21 days of administration of the powder chow, blood samples were taken from the orbital veins of the mice by capillary pipette under feeding condition, and plasma glucose levels were enzymatically measured by using Autoanalyzer 7080 (Hitachi, Japan). The values in the table means average (n=7)±standard deviation.

Structure (SMILES) | Plasma Glucose [mg/dL]
CCc1ccc(CCOc2ccc(CC3SC(=O)NC3=O)cc2)nc1 (centres unmarked) [Pioglitazone, 5-{[4-(2-(5-ethyl-2-pyridyl)ethoxy)phenyl]-methyl}-thiazolidine-2,4-dione] | 394.4 ± 47.9
Cn1c(=O)cc(N2CCC[C@@H](N)C2)n(Cc2cc(F)ccc2C#N)c1=O [Compound I, 2-[6-(3-Amino-piperidin-1-yl)-3-methyl-2,4-dioxo-3,4-dihydro-2H-pyrimidin-1-ylmethyl]-4-fluoro-benzonitrile] | 410.3 ± 47.9

— patent US20110077402A1, “ADMINISTRATION OF DIPEPTIDYL PEPTIDASE INHIBITORS” (priority 2007, published 2011)
